Laboratory results from ChEMBL document CHEMBL3132790 (Medchemcomm, 2013).

Experiments:
Histamine H4 receptor [1] = target: Histamine H4 receptor (Homo sapiens, UniProt Q9H3N8, L175V); assay: Displacement of [3H]histamine from human histamine H4 receptor L175'5.39V mutant transfected in HEK293T cells after 1.5 hrs by liquid scintillation counting analysis; type: cell-based, HEK-293T
Histamine H4 receptor [2] = target: Histamine H4 receptor (Homo sapiens, UniProt Q9H3N8, E182Q); assay: Displacement of [3H]-JNJ 7777120 from human histamine H4 receptor E182'5.46Q mutant transfected in HEK293T cells after 1.5 hrs by liquid scintillation counting analysis
Sequence of Histamine H4 receptor (Homo sapiens, UniProt Q9H3N8, E182Q) (Q9H3N8 whole entry E182Q): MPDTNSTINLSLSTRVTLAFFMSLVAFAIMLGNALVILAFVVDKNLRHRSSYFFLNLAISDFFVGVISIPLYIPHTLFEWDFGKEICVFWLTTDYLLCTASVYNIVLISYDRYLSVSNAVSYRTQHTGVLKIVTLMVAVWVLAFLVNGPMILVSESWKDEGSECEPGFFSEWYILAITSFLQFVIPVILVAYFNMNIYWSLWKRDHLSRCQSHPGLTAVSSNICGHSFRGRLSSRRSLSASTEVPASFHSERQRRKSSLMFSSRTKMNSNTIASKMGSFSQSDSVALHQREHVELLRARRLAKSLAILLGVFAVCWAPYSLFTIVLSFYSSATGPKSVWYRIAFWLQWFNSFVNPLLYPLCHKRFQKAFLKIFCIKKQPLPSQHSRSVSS

Histamine H4 receptor [3] = target: Histamine H4 receptor (Homo sapiens, UniProt Q9H3N8); assay: Displacement of [3H]histamine from wild type human histamine H4 receptor transfected in HEK293T cells after 1.5 hrs by liquid scintillation counting analysis; type: cell-based, HEK-293T

Sequence of Histamine H4 receptor (Homo sapiens, UniProt Q9H3N8, L175V) (Q9H3N8 whole entry L175V): as the sequence (Q9H3N8 whole entry E182Q) above, with L175V, Q182E counted along it

Row | Ki (Histamine H4 receptor [1]) [nM] | Ki (Histamine H4 receptor [2]) [nM] | Ki (Histamine H4 receptor [3]) [nM] | Structure (SMILES)
1 | – | – | 15.8 | COc1ccc(-c2cc(N3CCN(C)CC3)nc(N)n2)cc1
2 | 63.1 | 200 | 2 | CN1CCN(c2cc(-c3ccc(Cl)cc3)nc(N)n2)CC1

More lines, now with the values behind:

Row | Structure (SMILES) | Ki (Histamine H4 receptor [1]) [nM] | Ki (Histamine H4 receptor [2]) [nM] | Ki (Histamine H4 receptor [3]) [nM]
3 | CN1CCN(c2cc(-c3ccccc3)nc(N)n2)CC1 | 20 | 63.1 | –
4 | CN1CCN(c2cc(-c3ccc(N)cc3)nc(N)n2)CC1 | – | – | 5.01
5 | COc1ccc2[nH]c(C(=O)N3CCN(C)CC3)cc2c1 | – | – | 5010
6 | CN1CCN(C(=O)c2cc3cc([N+](=O)[O-])ccc3[nH]2)CC1 | – | – | 100
7 | CN1CCN(c2cc(-c3ccc([N+](=O)[O-])cc3)nc(N)n2)CC1 | – | – | 7.94
